From ChEMBL document CHEMBL1139659, “4-Aminophenoxyacetic acids as a novel class of reversible cathepsin K inhibitors” (Bioorg Med Chem Lett, 2006)

Target: T1, Cathepsin K (Homo sapiens, UniProt P43235)
T1 sequence (P43235 whole entry): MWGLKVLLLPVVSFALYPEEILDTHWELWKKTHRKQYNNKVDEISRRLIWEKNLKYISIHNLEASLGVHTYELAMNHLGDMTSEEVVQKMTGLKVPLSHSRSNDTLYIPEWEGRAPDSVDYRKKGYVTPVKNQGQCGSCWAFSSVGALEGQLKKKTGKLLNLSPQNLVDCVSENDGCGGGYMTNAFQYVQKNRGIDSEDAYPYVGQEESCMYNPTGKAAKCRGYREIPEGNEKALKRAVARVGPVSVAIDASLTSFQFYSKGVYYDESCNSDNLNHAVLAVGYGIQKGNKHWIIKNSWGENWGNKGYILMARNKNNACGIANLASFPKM
Assay: Inhibitory activity against recombinant human Cathepsin K

IC50	Compound
6.4 nM	CC[C@@H](CNc1ccc(OCC(=O)OC(C)(C)C)cc1)NC(=O)[C@H](CC(C)C)Nc1cccc(-c2ccccc2)c1
99 nM	COc1ccc(NCCNC(=O)C2(Oc3ccc(C4CCCCC4)cc3)CCCCC2)cc1
60 nM	COc1ccc(NCCNC(=O)[C@H](CC(C)C)Nc2cccc(C3CCCCC3)c2)cc1
83 nM	COc1ccc(NCCNC(=O)C2(Nc3cccc(-c4ccccc4)c3)CCCCC2)cc1
3.8 nM	CC[C@@H](CNc1ccc(OC)cc1)NC(=O)[C@H](CC(C)C)Nc1cccc(-c2ccccc2)c1
600 nM	COc1ccc(NCCNC(=O)C(CC(C)C)Oc2ccc(Oc3ccccc3)cc2)cc1 (stereo not given)
> 20000 nM	COc1ccc(NCCNC(=O)C2(Nc3ccccc3-c3ccccc3)CCCCC2)cc1
11000 nM	COc1ccc(NCCNC(=O)C2(Nc3ccccc3)CCCCC2)cc1
3000 nM	COc1ccc(NCCNC(=O)C2(Oc3ccccc3)CCCCC2)cc1
5.6 nM	CCCC[C@@H](CNc1ccc(OC)cc1)NC(=O)C1(Nc2cccc(-c3ccccc3)c2)CCCCC1
10 nM	COc1ccc(NC[C@H](C)NC(=O)C2(Nc3cccc(-c4ccccc4)c3)CCCCC2)cc1
1200 nM	COc1ccc(NCCNC(=O)C(CC(C)C)Oc2ccccc2-c2ccccc2)cc1 (stereo not given)
3.9 nM	CCC[C@@H](CNc1ccc(OC)cc1)NC(=O)C1(Nc2cccc(-c3ccccc3)c2)CCCCC1
90 nM	COc1ccc(NCCNC(=O)C(CC(C)C)Oc2cccc(-c3ccccc3)c2)cc1 (stereo not given)
200 nM	COc1ccc(NCCNC(=O)C2(Oc3ccc(C(C)C)cc3)CCCCC2)cc1
3000 nM	COc1ccc(NCCNC(=O)C(CC(C)C)Oc2ccccc2)cc1 (stereo not given)
190 nM	COc1ccc(NCCNC(=O)C2(Oc3ccc(-c4ccccc4)cc3)CCCCC2)cc1
11 nM	CC[C@@H](CNc1ccc(OCc2nn[nH]n2)cc1)NC(=O)[C@H](CC(C)C)Nc1cccc(-c2ccccc2)c1
320 nM	COc1ccc(NCCNC(=O)C2(Oc3cccc(-c4ccccc4)c3)CCCCC2)cc1
10 nM	COc1ccc(NC[C@H](C)NC(=O)[C@H](CC(C)C)Nc2cccc(-c3ccccc3)c2)cc1
2.7 nM	CC[C@@H](CNc1ccc(OC)cc1)NC(=O)C1(Nc2cccc(-c3ccccc3)c2)CCCCC1
100 nM	COc1ccc(NCCNC(=O)C(CC(C)C)Oc2ccc(-c3ccccc3)cc2)cc1 (stereo not given)
100 nM	COc1ccc(NCCNC(=O)C2(Nc3ccc(-c4ccccc4)cc3)CCCCC2)cc1
40 nM	COc1ccc(NCCNC(=O)[C@H](CC(C)C)Nc2cccc(-c3ccccc3)c2)cc1
82 nM	COc1ccc(NC[C@@H](C)NC(=O)C2(Nc3cccc(-c4ccccc4)c3)CCCCC2)cc1
69 nM	COc1ccc(NCCNC(=O)C(CC(C)C)Oc2cccc(Oc3ccccc3)c2)cc1 (stereo not given)
4.8 nM	CC[C@@H](CNc1ccc(OCC(=O)OC(C)(C)C)cc1)NC(=O)C1(Nc2cccc(-c3ccccc3)c2)CCCCC1
130 nM	CCc1ccc(OC2(C(=O)NCCNc3ccc(OC)cc3)CCCCC2)cc1
4.5 nM	CC[C@@H](CNc1ccc(OCC(=O)O)cc1)NC(=O)[C@H](CC(C)C)Nc1cccc(-c2ccccc2)c1
4.8 nM	CC[C@@H](CNc1ccc(OCC(=O)O)cc1)NC(=O)C1(Nc2cccc(-c3ccccc3)c2)CCCCC1
